The record followed here is patent publication US10538532B2, “Hepatitis B antiviral agents” (ENANTA PHARMACEUTICALS, INC., priority 2016, dated 2020).

One experiment deals with HBV. The experiment is described as follows: HepAD38 antiviral assay: reduction of viral product accumulation (virion DNA by qPCR, HBsAg or HBeAg by ELISA). The class given is cell-based, hepatitis B virus. Conditions: Hepatitis B virus, HePAD38, 120 h, HepAD38 cells, five days after compound addition; concentration reducing viral product accumulation by 50% relative to no drug controls; read-out: HepAD38 EC50. As to the method: Methods: HepAD38 cells are maintained as previously reported (Ladner et al, Antimicrob. Agents Chemother. 1997, […], 1715). Briefly, cells are passaged upon attaining confluency in DMEM/F12 media in the presence of 10% FBS, Penn/Strep, 250 μg/mL G418, and 1 ug/ml tetracycline. Novel compounds are screened by first washing cells three times with PBS to remove tetracycline, and plating in 96 well plates at 35,000 cells/well. Compounds dissolved in DMSO are then diluted 1:200 into wells containing cells. Five days after compound addition, material is harvested for analysis. For an extended 8 day analysis, cells are plated and treated as described above, but media and compound are refreshed on d2 and d5 post initial treatment.
On harvest day, virion DNA is obtained by lysing with Sidestep Lysis and Stabilization Buffer and then quantified via quantitative real time PCR. Commercially available ELISA kits are used to quantitate the viral proteins HBsAg (Alpco) or HbeAg (US Biological) by following the manufacturer's recommended protocol after diluting samples to match the linear range of their respective assays. Irrespective of readout, compound concentrations that reduce viral product accumulation in the cell lysates or supernatants by 50% relative to no drug controls (EC50) are reported; EC50 ranges are as follows: A<0.1 μM; B 0.1-0.4 μM; C>0.4 μM.
On the technique in general: In qPCR the cycle at which signal appears reflects the starting amount.
The EC50 is the midpoint of the concentration-response curve. Consider `O=C(Nc1cc(F)c(F)c(F)c1)c1ccc(Cl)c(S(=O)(=O)CCC2CCOCC2)c1` [Example 123], for which the EC50 lay in the range of 0.1 to 0.4 µM. For `O=C(Nc1cc(F)c(F)c(F)c1)c1ccc(Cl)c(S(=O)(=O)[C@H]2C3CC[C@H]2C[C@](O)(/C=N/OCc2ccc(F)cc2)C3)c1` [Example 232], the EC50 was < 0.1 µM.

Consider `O=C(Nc1cc(F)c(F)c(F)c1)c1ccc(Cl)c(S(=O)(=O)c2ccccc2)c1` [Example 82], for which the EC50 was > 0.4 µM. For the compound `O=C(Nc1cc(F)c(F)c(F)c1)c1ccc(Cl)c(S(=O)(=O)C(CO)CC2CCOCC2)c1` (stereo not drawn) [Example 166], the concentration for a half-maximal effect (EC50) was in the range of 0.1 to 0.4 µM. Still for that read-out and setting: to `O=C(Nc1cc(F)c(F)c(F)c1)c1ccc(Cl)c(S(=O)(=O)[C@H]2C3CC[C@H]2C[C@](O)(/C=N/Oc2ccccc2)C3)c1` [Example 157] belongs < 0.1 µM; to `COc1cccc(CO/N=C/[C@]2(O)CC3CC[C@@H](C2)[C@H]3S(=O)(=O)c2cc(C(=O)Nc3cc(F)c(F)c(F)c3)ccc2Cl)c1` [Example 237], 0.1 to 0.4 µM; to `C=CCC1(S(=O)(=O)c2cc(C(=O)Nc3cc(F)c(F)c(F)c3)ccc2Cl)CCCCC1` [Example 81], > 0.4 µM. On the same count and under the same terms, the result for `CC(=O)OC[C@]1(O)CC2CC[C@@H](C1)[C@H]2S(=O)(=O)c1cc(C(=O)Nc2cc(F)c(F)c(F)c2)ccc1Cl` [Example 132] reads < 0.1 µM; that for `CC(C)(O)[C@]1(O)CC2CC[C@@H](C1)[C@H]2S(=O)(=O)c1cc(C(=O)Nc2cc(F)c(F)c(F)c2)ccc1Cl` [Example 151], < 0.1 µM; that for `CN(C)c1ccc(C(=O)Nc2cc(F)c(F)c(F)c2)cc1S(=O)(=O)[C@H]1C2CC[C@H]1C[C@](O)(COS(C)(=O)=O)C2` [Example 144], > 0.4 µM. As for `O=C(Nc1cc(F)c(F)c(F)c1)c1ccc(Cl)c(O[C@H]2CC[C@H](O)CC2)c1` [Example 25], the EC50 is > 0.4 µM. The same measure, in the same setting: the result for `NC(=O)O[C@]1(c2cccnc2)C2CCC1C[C@H](S(=O)(=O)c1cc(C(=O)Nc3cc(F)c(F)c(F)c3)ccc1Cl)C2` [Example 353] reads < 0.1 µM; that for `CCOC(=O)/C=C1/CC2CC[C@@H](C1)[C@H]2S(=O)(=O)c1cc(C(=O)Nc2cc(F)c(F)c(F)c2)ccc1Cl` [Example 221], 0.1 to 0.4 µM. In the case of `O=C(Nc1cc(F)c(F)c(F)c1)c1ccc(Cl)c(S(=O)(=O)[C@H]2C3CC[C@H]2C[C@](O)(C#Cc2ccccc2)C3)c1` [Example 167], the concentration giving a half-maximal response (EC50) was in the range of 0.1 to 0.4 µM.

Consider `O=C(Nc1cc(F)c(F)c(F)c1)c1ccc(Cl)c(S(=O)(=O)[C@H]2C3CCC2C[C@H](CO)C3)c1` [Example 106], for which the EC50 was < 0.1 µM. Same read-out and setting: to `O=C(Nc1cc(F)c(F)c(F)c1)c1ccc(Cl)c(SC2CCCCC2)c1` [Example 11] belongs > 0.4 µM; to `CC(C)[C@H](NC(=O)OC(C)(C)C)C(=O)O[C@H]1CC[C@H](S(=O)(=O)c2cc(C(=O)Nc3cc(F)c(F)c(F)c3)ccc2Cl)CC1` [Example 76], 0.1 to 0.4 µM. The same measure, in the same setting: the result for `O=C(Nc1cc(F)c(F)c(F)c1)c1ccc(Cl)c(S(=O)(=O)[C@H]2C3CC[C@H]2C[C@H](/C=N/O)C3)c1` [Example 229] reads < 0.1 µM; that for `O=C(Nc1cc(F)c(F)c(F)c1)c1ccc(Cl)c(S(=O)(=O)C2CCC3(CC2)OCCO3)c1` [Example 1], 0.1 to 0.4 µM; that for `O=C(Nc1ccnc(Cl)c1)c1ccc(Cl)c(S(=O)(=O)[C@H]2CC[C@H](O)CC2)c1` [Example 24], > 0.4 µM. Still for that read-out and setting: the result for `CN1OCC(C#N)C1[C@]1(O)CC2CC[C@@H](C1)[C@H]2S(=O)(=O)c1cc(C(=O)Nc2cc(F)c(F)c(F)c2)ccc1Cl` (stereo partly drawn) [Example 200] reads 0.1 to 0.4 µM; that for `CS(=O)(=O)NC(=O)O[C@H]1CC[C@H](S(=O)(=O)c2cc(C(=O)Nc3cc(F)c(F)c(F)c3)ccc2Cl)CC1` [Example 53], > 0.4 µM. As to `O=C(Nc1cc(F)cc(F)c1)c1ccc(Cl)c(S(=O)(=O)[C@H]2CC[C@H](O)CC2)c1` [Example 68], the EC50 is 0.1 to 0.4 µM. The same measure, in the same setting: the result for `CC(C)(C)OC(=O)N1C2CCC1CC(S(=O)(=O)c1cc(C(=O)Nc3cc(F)c(F)c(F)c3)ccc1Cl)C2` (stereo not drawn) [Example 255] reads > 0.4 µM; that for `O=C(Nc1cc(F)c(F)c(F)c1)c1ccc(Cl)c(S(=O)(=O)C2C[C@H]3CC[C@@H](C2)O3)c1` (stereo partly drawn) [Example 356], 0.1 to 0.4 µM. Still for that read-out and setting: to `CC(C)(C)OC(=O)N[C@H]1CC[C@H](S(=O)(=O)c2cc(C(=O)Nc3cc(F)c(F)c(F)c3)ccc2Cl)CC1` [Example 54] belongs 0.1 to 0.4 µM; to `C/[N+]([O-])=C\[C@]1(O)CC2CC[C@@H](C1)[C@H]2S(=O)(=O)c1cc(C(=O)Nc2cc(F)c(F)c(F)c2)ccc1Cl` [Example 196], < 0.1 µM; to `CCOC(=O)C(F)(F)S(=O)(=O)c1cc(C(=O)Nc2cc(F)c(F)c(F)c2)ccc1Cl` [Example 93], > 0.4 µM. On the same count and under the same terms, the result for `C[C@H](N)C(=O)O[C@H]1CC[C@H](S(=O)(=O)c2cc(C(=O)Nc3cc(F)c(F)c(F)c3)ccc2Cl)CC1` [Example 6] reads 0.1 to 0.4 µM; that for `CC(=O)OCC1=CC2CCC(C1)[C@@H]2S(=O)(=O)c1cc(C(=O)Nc2cc(F)c(F)c(F)c2)ccc1Cl` (stereo partly drawn) [Example 140], 0.1 to 0.4 µM. In the case of `CC(=O)NC[C@]1(O)C2CCC1C[C@@H](S(=O)(=O)c1cc(C(=O)Nc3cc(F)c(F)c(F)c3)ccc1Cl)C2` [Example 345], the EC50 was < 0.1 µM. Same read-out and setting: the result for `CC(C)(C)OC(=O)N[C@@H](Cc1ccccc1)C(=O)NC[C@]1(O)C2CCC1C[C@@H](S(=O)(=O)c1cc(C(=O)Nc3cc(F)c(F)c(F)c3)ccc1Cl)C2` [Example 364] reads < 0.1 µM; that for `CCOC(=O)C(C)(C)S(=O)(=O)c1cc(C(=O)Nc2cc(F)c(F)c(F)c2)ccc1Cl` [Example 92], > 0.4 µM; that for `O=C(Nc1cc(F)c(F)c(F)c1)c1ccc(Cl)c(S(=O)(=O)C[C@H]2OC(=O)[C@H](O)[C@@H]2O)c1` [Example 101], > 0.4 µM. Still for that read-out and setting: to `O=C(Nc1cc(F)c(F)c(F)c1)c1ccc(Cl)c(S(=O)(=O)CC2CCCCC2)c1` [Example 36] belongs > 0.4 µM.

For `CC(C)[C@H](N)C(=O)OC[C@]1(O)CC2CC[C@@H](C1)[C@H]2S(=O)(=O)c1cc(C(=O)Nc2cc(F)c(F)c(F)c2)ccc1Cl` [Example 254], the EC50 is < 0.1 µM. `O=C(Nc1cc(F)c(F)c(F)c1)c1ccc(Cl)c(S(=O)(=O)[C@H]2C3CC[C@H]2C[C@](O)(/C=N/OCc2c(F)c(F)c(F)c(F)c2F)C3)c1` [Example 235]: the EC50 lay within 0.1 to 0.4 µM. On the same count and under the same terms, to `C=C1C2CCC1CC(S(=O)(=O)c1cc(C(=O)Nc3cc(F)c(F)c(F)c3)ccc1Cl)C2` (stereo not drawn) [Example 207] belongs > 0.4 µM. On the same count and under the same terms, the result for `O=C(Nc1cc(F)c(F)c(F)c1)c1ccc(Cl)c(S(=O)(=O)[C@H]2CC3CCC(C2)[C@@H]3N2CCOCC2)c1` [Example 359] reads < 0.1 µM; that for `O=C(Nc1cc(F)c(F)c(F)c1)c1ccc(Cl)c(S(=O)(=O)C2CCCC(O)CC2)c1` (stereo not drawn) [Example 125], 0.1 to 0.4 µM. On the same count and under the same terms, to `O=C(Nc1cc(F)c(F)c(F)c1)c1ccc(Cl)c(S(=O)(=O)[C@H]2C3CC[C@H]2C[C@]2(C3)OC(=O)[C@@H](O)[C@@H]2O)c1` [Example 338] belongs > 0.4 µM; to `O=C(Nc1cc(F)c(F)c(F)c1)c1ccc(Cl)c(SCC2CCCCC2)c1` [Example 28], > 0.4 µM; to `CNC(=O)OC[C@@H]1CC2CC[C@@H](C1)[C@H]2S(=O)(=O)c1cc(C(=O)Nc2cc(F)c(F)c(F)c2)ccc1Cl` [Example 318], < 0.1 µM. `C[C@H](NC(=O)OC(C)(C)C)C(=O)O[C@H]1CC[C@H](S(=O)(=O)c2cc(C(=O)Nc3cc(F)c(F)c(F)c3)ccc2Cl)CC1` [Example 5]: the EC50 was in the range of 0.1 to 0.4 µM. The same measure, in the same setting: the result for `O=C(Nc1cc(F)c(F)c(F)c1)c1ccc(Cl)c(S(=O)(=O)[C@H]2CC3CCC(C2)[C@@H]3O)c1` [Example 192] reads 0.1 to 0.4 µM; that for `COc1cc(C(=O)Nc2cc(F)c(F)c(F)c2)ccc1Cl` [Example 14], > 0.4 µM.

For `O=C(Nc1cc(F)c(F)c(F)c1)c1ccc(Cl)c(S(=O)(=O)C2C[C@@H]3O[C@H](C2)[C@@H](O)[C@H]3O)c1` (stereo partly drawn) [Example 355], the EC50 was > 0.4 µM. The same measure, in the same setting: the result for `O=C(Nc1cc(F)c(F)c(F)c1)c1ccc(Cl)c([S+]([O-])Cc2ccncc2)c1` (stereo not drawn) [Example 47] reads > 0.4 µM; that for `O=C(Nc1cc(F)c(F)c(F)c1)c1ccc(Cl)c(S(=O)(=O)[C@H]2C3CC[C@H]2C[C@@](O)(C#Cc2ccccc2)C3)c1` [Example 168], > 0.4 µM; that for `CC1(C)OC[C@@]2(CC3CC[C@@H](C2)[C@H]3S(=O)(=O)c2cc(C(=O)Nc3cc(F)c(F)c(F)c3)ccc2Cl)O1` [Example 128], 0.1 to 0.4 µM. Still for that read-out and setting: the result for `COC(=O)C1CON(C)[C@]12CC1CC[C@@H](C2)[C@H]1S(=O)(=O)c1cc(C(=O)Nc2cc(F)c(F)c(F)c2)ccc1Cl` (stereo partly drawn) [Example 218] reads > 0.4 µM; that for `COC(=O)C1=CON(Cc2ccccc2)C1[C@]1(O)CC2CC[C@@H](C1)[C@H]2S(=O)(=O)c1cc(C(=O)Nc2cc(F)c(F)c(F)c2)ccc1Cl` (stereo partly drawn) [Example 215], > 0.4 µM; that for `O=C(Nc1cc(F)c(F)c(F)c1)c1ccc(Cl)c(S(=O)(=O)C2C3CCCC2CC(O)(CO)C3)c1` (stereo not drawn) [Example 133], 0.1 to 0.4 µM.

Staying with this experiment, now noted: Hepatitis B virus, HePAD38, 120 h, read-out: HepAD38 EC50.
For `CC(C)(C)[Si](C)(C)O[C@H]1C2CCC1C[C@@H](Sc1cc(C(=O)Nc3cc(F)c(F)c(F)c3)ccc1Cl)C2` [Example 189], the EC50 is 0.1 to 0.4 µM.
